Measured values from patent US20120107428A1, “REPELLENTS FOR PESTIFEROUS SOCIAL WASPS” (Sterling International Inc., priority 2010, published 2012).

What was measured:
[1] = tested on: Paper wasps (mainly Polistes dominulus, plus a few of P. aurifer); assay: Field trapping, Rescue W•H•Y traps baited with attractant AA/2MB: captures of paper wasps; type: in vivo; conditions: N 9
Protocol: (§1) Eleven field trapping experiments were carried out from late August to mid-October 2009 in residential and woody areas around Spokane, Wash., USA, mostly using the trap known by the designation Rescue® W•H•Y (except on one occasion that Rescue® Reusable Yellowjacket Traps were used for a natural food attractant; see below for details). The commercial W•H•Y trap has a top chamber and a bottom chamber and is described in U.S. Patent Application Publication No. 2009/0151228. The top chamber is baited with two attractants—one of which is a solid contained in a vial (2-methyl-1-butanol), and the other is a liquid mixed with water (acetic acid). The bottom chamber is baited with a liquid attractant (heptyl butyrate) poured onto a cotton pad. Separation of the two types of attractants (otherwise antagonistic to each other when released from the same chamber) in two chambers creates two focal attraction sources from one trap for different species of wasps, hornets, and yellowjackets. […] In a special occasion, the commercial Rescue® Reusable Yellowjacket Traps were each baited with 10 g of chopped bacon (loaded into a cartridge) as a natural protein food attractant. Traps were hung 1.5-2.0 m above the ground on either fences or tree branches ca. 5 m apart between each trap and at least 15 m between sets. For each trapping experiment, three sets of traps (i.e., three physical replicates of each treatment) were deployed with their initial trap positions within each set being randomized. To minimize positional effects and obtain more replications, wasp collections and trap re-randomization were carried out when 5-10 wasps were caught in the best traps. Each replicate lasted several days depending on wasp flight activity. Captured wasps were removed from the traps and kept in the zip-bags before returning to the laboratory for recording of the species, gender status, and catch. Repellent candidates (individuals or mixtures) were released from polyethylene bags (3×5 cm; with a fabric felt) with various thicknesses from 2-12 mil (see release rates listed in tables); they were employed inside the same trap chamber as the attractant.
(§2) Experiment 1 tested five individual essential oils (pennyroyal, lemongrass, peppermint, clove, and citronella) and two known mosquito repellents (i.e., major components of catnip oil), E/Z-nepetalactone and Z/E-nepetalactone plus a blank control against a mixture of attractant [acetic acid (AA) and 2-methyl-1-butanol (2 MB)] using the W•H•Y traps (both attractant and repellent candidates were released from the top chamber) from for eight consecutive days from August to early September. Experiment 2 tested nine individual essential oils (ylang ylang, vetiver, myrrh, patchouli, geranium, eucalyptus, camphor, spearmint, and wintergreen) plus a blank control against a mixture of attractant (AA+2 MB) using the W•H•Y traps (both attractant and repellent candidates were released from the top chamber) for eight consecutive days from late August to early September. Experiment 3 tested seven individual essential oils (Roman chamomile, sage, fennel seed, rosemary, thyme, anise, and lavender) plus a blank control against a mixture of attractant (AA+2 MB) using the W•H•Y traps (both attractant and repellent candidates were released from the top chamber) for eight consecutive days from late August to early September. Experiment 4 tested two essential oil mixtures (3EO-mix: clove, geranium, and lemongrass in ca. 1:1:1 ratio; and 4EO-mix: clove, geranium, lemongrass, and rosemary in ca. 1:1:1:1 ratio) plus a blank control against a mixture of attractant (AA+2 MB) using the W•H•Y traps (both attractant and repellent candidates were released from the top chamber) for 13 consecutive days in September; the essential oil mixtures alone without attractant were tested in the same experiment.

[2] = tested on: vespid wasps (paper wasps, hornets and yellowjackets); assay: Field trapping experiments, repellency stated for vespid wasps as a whole (yellowjackets and paper wasps; summaries); type: in vivo, Vespula pensylvanica; Polistes dominulus; conditions: for activity at doses tested: Experiment 9; for repellency on either yellowjackets or paper wasps or both to the attractant AA/2 MB: Experiments 1-3, late August to early September
Protocol: as §1, §2

[3] = tested on: worker antennae of Vespula pensylvanica, Dolichovespula maculata, Polistes dominulus, and P. aurifer; assay: GC-EAD/MS analysis of SPME headspace samples of essential oils: antennal responses; conditions: for antennal (EAD) response to component of rosemary oil: V. pensylvanica and D. maculata antennae, FIG. 3; for antennal (EAD) response to component of geranium oil: V. pensylvanica, D. maculata, P. dominulus, or P. aurifer antennae
Protocol: Headspace volatiles from greater than 10 types of essential oils (1 ml each in a closed 20 ml glass vial) were sampled via Solid-Phase Micro-Extraction (SPME) (CAR/PDMS, 85 μm, Supelco, Bellefonte, Pa.) for 20-30 sec before GC-EAD and GC-MS analyses.
Paper wasp [European paper wasp (Polistes dominulus) or golden paper wasp (P. aurifer)] and yellowjacket [Western yellowjacket (Vespula pensylvanica) or Bald-faced hornet (Dolichovespula maculata)] workers for electrophysiological study were collected from their nests and kept alive at 4° C. before testing.
SPME samples of the various essential oils were injected splitless into a Varian CP-3800 GC equipped with a polar column (HP-INNOWAX; 30 m×0.53 mm×1.0 μm film thickness; Agilent Technologies, Wilmington, Del., USA) and a 1:1 effluent splitter that allowed simultaneous flame ionization detection (FID) and electroantennographic detection (EAD) of either a yellowjacket or paper wasp worker antenna to the separated volatile compounds. Helium was used as the carrier gas, and the injector and detector temperatures were 250° C. and 300° C., respectively. Column temperature was 50° C. for 1 min, rising to 240° C. at 10° C./min, and then held for 10 min. The outlet for the EAD was held in a humidified air stream flowing at 0.5 m/sec over the antennal preparation. EAD recordings were made using silver wire-glass capillary electrodes filled with Beadle-Ephrussi Ringer on freshly cut antennae. The antennal signals were stored and analyzed on a PC equipped with a serial IDAC interface box and the program EAD ver. 2.5 (Syntech, Hilversum, The Netherlands).
Compounds were identified by comparison of retention times with those of authentic standards and with mass spectra of standards.

[4] = tested on: Yellowjackets (mainly Vespula pensylvanica (ca. 90%), plus V. vulgaris, V. germanica, and Dolichovespula maculata); assay: Field trapping, Rescue W•H•Y traps baited with attractant AA/2MB: captures of yellowjackets; type: in vivo; conditions: N 9
Protocol: as §1, §2

[5] = Table 8, Experiment 9, attractant AA/2MB alone (row AA/2MB) or plus chemical, 13 days in September
[6] = Table 1, Experiment 1, attractant AA/2MB alone (row AA/2MB) or plus essential oil/chemical in same trap chamber, eight days late August to early September
[7] = Table 9, Experiment 10, attractant AA/2MB alone (row AA/2MB) or plus chemical, 18 days end of September through mid-October
[8] = Table 10, Experiment 11, attractant AA/2MB alone (row AA/2MB) or plus chemical, 16 days in October

CC1=CCC(O)(C(C)C)CC1 (centres unmarked) [4-Terpineol, 4-terpineol]
Mean/trap/visit ± SE Paper wasps [1, 5]: 2.0 ± 0.7 ab wasps/trap/visit | activity at doses tested ([2]; AA/2 MB): inactive | antennal (EAD) response to component of rosemary oil [3]: significant EAD-responses | Mean/trap/visit ± SE Yellowjackets [4, 5]: 23.3 ± 5.6 b wasps/trap/visit

CC1=CCC(C(C)(C)O)CC1 (stereo not drawn) [α-Terpineol, α-terpineol]
Mean/trap/visit ± SE Paper wasps [1, 5]: 2.2 ± 0.9 ab wasps/trap/visit | activity at doses tested ([2]; AA/2 MB): inactive | antennal (EAD) response to component of rosemary oil [3]: significant EAD-responses | Mean/trap/visit ± SE Yellowjackets [4, 5]: 21.9 ± 5.7 b wasps/trap/visit

Z/E-nepetalactone [ZE-Neptalactone]
Mean/trap/visit ± SE Paper wasps [1, 6]: 11.3 ± 4.5 c wasps/trap/visit | repellency on either yellowjackets or paper wasps or both to the attractant AA/2 MB [2]: partially significant repellency | Mean/trap/visit ± SE Yellowjackets [4, 6]: 52.1 ± 16.2 cd wasps/trap/visit

CC(C)=CCC/C(C)=C/CO [Geraniol, geraniol]
Mean/trap/visit ± SE Paper wasps [1, 7]: 2.9 ± 0.9 b wasps/trap/visit | repellency at the dose tested ([2]; Experiment 10, AA/2 MB): not different from the attractant alone | antennal (EAD) response to component of geranium oil [3]: significant and consistent EAD-responses | Mean/trap/visit ± SE Yellowjackets [4, 7]: 21.8 ± 6.0 cd wasps/trap/visit

CC1=CC(=O)[C@H]2C[C@@H]1C2(C)C [(−)-Verbenone, (−)-verbenone]
Mean/trap/visit ± SE Paper wasps [1, 5]: 2.9 ± 0.9 ab wasps/trap/visit | activity at doses tested ([2]; AA/2 MB): inactive | Mean/trap/visit ± SE Yellowjackets [4, 5]: 18.7 ± 5.9 b wasps/trap/visit

E/Z-nepetalactone [EZ-Neptalactone]
Mean/trap/visit ± SE Paper wasps [1, 6]: 3.2 ± 1.1 bc wasps/trap/visit | repellency on either yellowjackets or paper wasps or both to the attractant AA/2 MB [2]: partially significant repellency | Mean/trap/visit ± SE Yellowjackets [4, 6]: 11.2 ± 3.6 b wasps/trap/visit

COc1ccc(C)cc1 [4-Methylanisole, 4-methylanisole]
Mean/trap/visit ± SE Paper wasps [1, 8]: 0.9 ± 0.5 a wasps/trap/visit | repellency to either yellowjackets or paper wasps ([2]; Experiment 11, AA/2 MB, at 90 mg/day release): did not show significant repellency | antennal (EAD) response to component of ylang ylang oil ([3]; V. pensylvanica and P. dominulus worker antennae): strong and repeatable antennal responses | Mean/trap/visit ± SE Yellowjackets [4, 8]: 10.0 ± 5.0 b wasps/trap/visit

CC(C)=CCCC(C)CCO (stereo not drawn) [β-Citronellol, β-citronellol]
Mean/trap/visit ± SE Paper wasps [1, 5]: 5.1 ± 1.6 b wasps/trap/visit | activity at doses tested ([2]; AA/2 MB): inactive | antennal (EAD) response to component of geranium oil [3]: significant and consistent EAD-responses | Mean/trap/visit ± SE Yellowjackets [4, 5]: 36.2 ± 6.8 b wasps/trap/visit
